pIC50: −log10 of the molar value.
Target: T1, p300 (Homo sapiens, UniProt Q09472)
T1 construct: gene EP300; fragment of p300 (aa 1815–1910), including the PHD, catalytic (HAT), ZZ and TAZ2 domains
T1 sequence (Q09472 1815-1910): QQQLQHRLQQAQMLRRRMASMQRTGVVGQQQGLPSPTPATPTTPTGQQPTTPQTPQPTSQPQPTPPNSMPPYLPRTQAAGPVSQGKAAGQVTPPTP
Assay: HTRF tau acetylation assay with purified p300 core domain; confirmed by orthogonal MMBC assay and DSF binding
Format: biochemical

pIC50: 4.45
Structure (SMILES): Cc1cc2c(c(=S)[nH]1)C(=O)O/C2=C\c1ccco1 [compound 37892, SMDC37892]
